{"source": "paper PMC8492687", "about": "“An ethylene biosynthesis enzyme controls quantitative variation in maize ear length and kernel yield” (Nature Communications, 2021)", "target": "T1, ZmACO2 (Zea mays, UniProt A0A804UDP7)", "T1 construct": "gene LOC100382364", "T1 sequence (A0A804UDP7 1-326)": "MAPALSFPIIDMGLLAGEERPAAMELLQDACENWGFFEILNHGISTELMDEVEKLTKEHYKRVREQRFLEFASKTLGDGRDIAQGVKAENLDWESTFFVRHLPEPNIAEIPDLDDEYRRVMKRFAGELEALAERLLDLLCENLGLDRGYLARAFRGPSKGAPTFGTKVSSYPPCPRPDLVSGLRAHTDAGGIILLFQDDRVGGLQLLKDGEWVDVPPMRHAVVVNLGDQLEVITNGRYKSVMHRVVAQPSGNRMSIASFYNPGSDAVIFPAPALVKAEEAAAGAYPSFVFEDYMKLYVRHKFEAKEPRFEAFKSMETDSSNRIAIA", "experiment": "ethylene production by gas chromatography with flame-ionization detection", "format": "biochemical", "conditions": "5 mM ascorbate, 20 mM bicarbonate, 0.02 mM iron sulfate, 1 mM DTT, 10% glycerol, MOPS pH 7.2, 30 °C; ACC varied, Michaelis-Menten fit drawn"}
{"smiles": "NC1(C(=O)O)CC1", "note": "[ACC]", "values": [{"measurement": "ethylene production by gas chromatography with flame-ionization detection", "result": "The amount of ethylene production catalyzed by ZmACO2 increased exponentially up to an ACC concentration"}]}
